Reference: ChEMBL document CHEMBL4052740, “Potent antiobesity effect of a short-length peptide YY-analogue continuously administered in mice” (Bioorg Med Chem Lett, 2017)
pEC50, pIC50: −log10 of the molar value. Where a SMILES comes first, the peptide text is derived from it. [ ]: non-standard residue; d: D form. Cha = N[C@@H](CC1CCCCC1)C(=O)O; Aib = CC(C)(N)C(=O)O

Tests used:
[1] = target: T1, Neuropeptide Y receptor type 2 (Homo sapiens, UniProt P49146); assay: Agonist activity at human Y2 receptor expressed in CHO cell membranes after 120 mins by [35S]GTPgammaS binding assay; type: functional
T1 sequence (P49146 whole entry): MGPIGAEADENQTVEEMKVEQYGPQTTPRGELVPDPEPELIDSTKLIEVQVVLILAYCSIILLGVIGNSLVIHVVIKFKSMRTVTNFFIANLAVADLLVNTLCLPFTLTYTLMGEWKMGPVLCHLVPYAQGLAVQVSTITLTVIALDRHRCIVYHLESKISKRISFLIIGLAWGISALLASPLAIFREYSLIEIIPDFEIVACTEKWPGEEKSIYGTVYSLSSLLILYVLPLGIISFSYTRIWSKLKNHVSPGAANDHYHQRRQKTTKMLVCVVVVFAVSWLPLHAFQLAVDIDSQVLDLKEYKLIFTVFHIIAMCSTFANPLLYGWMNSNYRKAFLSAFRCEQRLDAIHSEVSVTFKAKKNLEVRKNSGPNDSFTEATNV

[2] = target: T1, Neuropeptide Y receptor type 2; assay: Displacement of [125I]peptide YY from human Y2 receptor expressed in CHO cell membranes after 60 mins by TopCount scintillation counting analysis
Mus musculus = assay: Anorectic activity in C57BL/6J mouse assessed as inhibition of food intake at 1 mg/kg/day, sc administered by infusion as continuous dosing for 3 days relative to 1 mg/kg/day PYY (3 to 36 residues); type: functional; details: 72 h

SMILES	pEC50 [1]	pIC50 [2]	inhibition in vivo at 1 mg/kg/day (Mus musculus)
CC(=O)N[C@@H](CO)C(=O)N1CCC[C@@H]1C(=O)N[C@@H](CCCNC(=N)N)C(=O)N[C@@H](Cc1cnc[nH]1)C(=O)N[C@@H](CC1CCCCC1)C(=O)N[C@@H](CC1CCCCC1)C(=O)N[C@@H](CC(N)=O)C(=O)N[C@@H](CO)C(=O)NC(C)(C)C(=O)N[C@H](C(=O)N[C@@H](CCCNC(=N)N)C(=O)N[C@@H](CCC(N)=O)C(=O)N[C@@H](CCCNC(=N)N)C(=O)N[C@@H](CC1CCCCC1)C(N)=O)[C@@H](C)O	9.22	8.64	
CC(=O)N[C@@H](CO)C(=O)N1CCC[C@@H]1C(=O)N[C@@H](CCCNC(=N)N)C(=O)N[C@@H](Cc1cnc[nH]1)C(=O)N[C@@H](Cc1ccncc1)C(=O)N[C@@H](CC1CCCCC1)C(=O)N[C@@H](CC(N)=O)C(=O)N[C@@H](CC(C)C)C(=O)NC(C)(C)C(=O)N[C@H](C(=O)N[C@@H](CCCNC(=N)N)C(=O)N[C@@H](CCC(N)=O)C(=O)N[C@@H](CCCNC(=N)N)C(=O)N[C@@H](CC1CCCCC1)C(N)=O)[C@@H](C)O	8.74	8.22	
CC(=O)N[C@@H](CO)C(=O)N1CCC[C@@H]1C(=O)N[C@@H](CCCNC(=N)N)C(=O)N[C@@H](Cc1cnc[nH]1)C(=O)N[C@@H](Cc1ccc(O)cc1)C(=O)N[C@@H](CC1CCCCC1)C(=O)N[C@@H](CC(N)=O)C(=O)N[C@@H](CC(C)C)C(=O)NC(C)(C)C(=O)N[C@H](C(=O)N[C@@H](CCCNC(=N)N)C(=O)N[C@@H](CCC(N)=O)C(=O)N[C@@H](CCCNC(=N)N)C(=O)N[C@@H](CC1CCCCC1)C(N)=O)[C@@H](C)O	8.60	8.28	
CC(=O)N[C@@H](CO)C(=O)N1CCC[C@@H]1C(=O)N[C@@H](CCCNC(=N)N)C(=O)N[C@@H](Cc1cnc[nH]1)C(=O)N[C@@H](CC1CCCCC1)C(=O)N[C@@H](CC1CCCCC1)C(=O)N[C@@H](CC(N)=O)C(=O)N[C@@H](CCCNC(=N)N)C(=O)NC(C)(C)C(=O)N[C@H](C(=O)N[C@@H](CCCNC(=N)N)C(=O)N[C@@H](CCC(N)=O)C(=O)N[C@@H](CCCNC(=N)N)C(=O)N[C@@H](CC1CCCCC1)C(N)=O)[C@@H](C)O	9.80	9.22	59%
CC(=O)N[C@@H](CO)C(=O)N1CCC[C@@H]1C(=O)N[C@@H](CCCNC(=N)N)C(=O)N[C@@H](Cc1cnc[nH]1)C(=O)N[C@@H](Cc1cnc[nH]1)C(=O)N[C@@H](CC1CCCCC1)C(=O)N[C@@H](CC(N)=O)C(=O)N[C@@H](CC(C)C)C(=O)NC(C)(C)C(=O)N[C@H](C(=O)N[C@@H](CCCNC(=N)N)C(=O)N[C@@H](CCC(N)=O)C(=O)N[C@@H](CCCNC(=N)N)C(=O)N[C@@H](CC1CCCCC1)C(N)=O)[C@@H](C)O	8.42	7.96	
CC(=O)N[C@@H](CO)C(=O)N1CCC[C@@H]1C(=O)N[C@@H](CCCNC(=N)N)C(=O)N[C@@H](Cc1cnc[nH]1)C(=O)N[C@@H](CC1CCCCC1)C(=O)NC(C)(C)C(=O)N[C@@H](CC(N)=O)C(=O)N[C@@H](CC(C)C)C(=O)NC(C)(C)C(=O)N[C@H](C(=O)N[C@@H](CCCNC(=N)N)C(=O)N[C@@H](CCC(N)=O)C(=O)N[C@@H](CCCNC(=N)N)C(=O)N[C@@H](CC1CCCCC1)C(N)=O)[C@@H](C)O	9.18	8.85	59%
CC(=O)N[C@@H](CO)C(=O)N1CCC[C@@H]1C(=O)N[C@@H](CCCNC(=N)N)C(=O)N[C@@H](Cc1cnc[nH]1)C(=O)N[C@@H](CC1CCCCC1)C(=O)N[C@@H](CC1CCCCC1)C(=O)N[C@@H](CC(N)=O)C(=O)N[C@@H](Cc1ccncc1)C(=O)NC(C)(C)C(=O)N[C@H](C(=O)N[C@@H](CCCNC(=N)N)C(=O)N[C@@H](CCC(N)=O)C(=O)N[C@@H](CCCNC(=N)N)C(=O)N[C@@H](CC1CCCCC1)C(N)=O)[C@@H](C)O	9.32	8.52	
CC(=O)N[C@@H](CO)C(=O)N1CCC[C@@H]1C(=O)N[C@@H](CCCNC(=N)N)C(=O)N[C@@H](Cc1cnc[nH]1)C(=O)N[C@@H](CC1CCCCC1)C(=O)N[C@@](C)(CC(C)C)C(=O)N[C@@H](CC(N)=O)C(=O)N[C@@H](CC(C)C)C(=O)NC(C)(C)C(=O)N[C@H](C(=O)N[C@@H](CCCNC(=N)N)C(=O)N[C@@H](CCC(N)=O)C(=O)N[C@@H](CCCNC(=N)N)C(=O)N[C@@H](CC1CCCCC1)C(N)=O)[C@@H](C)O	9.39	9.03	59%
CC(=O)N[C@@H](CO)C(=O)N1CCC[C@@H]1C(=O)N[C@@H](CCCNC(=N)N)C(=O)N[C@@H](CO)C(=O)N[C@@H](CC1CCCCC1)C(=O)N[C@@H](CC1CCCCC1)C(=O)N[C@@H](CC(N)=O)C(=O)N[C@@H](CC(C)C)C(=O)NC(C)(C)C(=O)N[C@H](C(=O)N[C@@H](CCCNC(=N)N)C(=O)N[C@@H](CCC(N)=O)C(=O)N[C@@H](CCCNC(=N)N)C(=O)N[C@@H](CC1CCCCC1)C(N)=O)[C@@H](C)O	9.48	9.01	54%
CC(=O)N[C@@H](CO)C(=O)N1CCC[C@@H]1C(=O)N[C@@H](CCCNC(=N)N)C(=O)N[C@@H](Cc1cnc[nH]1)C(=O)N[C@@H](CC1CCCCC1)C(=O)N[C@@H](Cc1ccncc1)C(=O)N[C@@H](CC(N)=O)C(=O)N[C@@H](CC(C)C)C(=O)NC(C)(C)C(=O)N[C@H](C(=O)N[C@@H](CCCNC(=N)N)C(=O)N[C@@H](CCC(N)=O)C(=O)N[C@@H](CCCNC(=N)N)C(=O)N[C@@H](CC1CCCCC1)C(N)=O)[C@@H](C)O	9.12	8.60	41%
CC(=O)N[C@@H](CO)C(=O)N1CCC[C@@H]1C(=O)N[C@@H](CCCNC(=N)N)C(=O)N[C@@H](Cc1cnc[nH]1)C(=O)NC(C)(C)C(=O)N[C@@H](CC1CCCCC1)C(=O)N[C@@H](CC(N)=O)C(=O)N[C@@H](CC(C)C)C(=O)NC(C)(C)C(=O)N[C@H](C(=O)N[C@@H](CCCNC(=N)N)C(=O)N[C@@H](CCC(N)=O)C(=O)N[C@@H](CCCNC(=N)N)C(=O)N[C@@H](CC1CCCCC1)C(N)=O)[C@@H](C)O	8.77	8.59	
CCCC[C@H](NC(=O)[C@H](CC(N)=O)NC(=O)[C@H](CC1CCCCC1)NC(=O)[C@H](CC1CCCCC1)NC(=O)[C@H](Cc1cnc[nH]1)NC(=O)[C@H](CCCNC(=N)N)NC(=O)[C@H]1CCCN1C(=O)[C@H](CO)NC(C)=O)C(=O)NC(C)(C)C(=O)N[C@H](C(=O)N[C@@H](CCCNC(=N)N)C(=O)N[C@@H](CCC(N)=O)C(=O)N[C@@H](CCCNC(=N)N)C(=O)N[C@@H](CC1CCCCC1)C(N)=O)[C@@H](C)O	9.68	8.89	
CC(=O)N[C@@H](CO)C(=O)N1CCC[C@@H]1C(=O)N[C@@H](CCCNC(=N)N)C(=O)N[C@@H](CCC(N)=O)C(=O)N[C@@H](CC1CCCCC1)C(=O)N[C@@H](CC1CCCCC1)C(=O)N[C@@H](CC(N)=O)C(=O)N[C@@H](CC(C)C)C(=O)NC(C)(C)C(=O)N[C@H](C(=O)N[C@@H](CCCNC(=N)N)C(=O)N[C@@H](CCC(N)=O)C(=O)N[C@@H](CCCNC(=N)N)C(=O)N[C@@H](CC1CCCCC1)C(N)=O)[C@@H](C)O	9.38	8.96	55%
CC(=O)N[C@@H](CO)C(=O)N1CCC[C@@H]1C(=O)N[C@@H](CCCNC(=N)N)C(=O)N[C@@H](Cc1cnc[nH]1)C(=O)N[C@@H](CC1CCCCC1)C(=O)N[C@@H](CC1CCCCC1)C(=O)N[C@@H](CC(N)=O)C(=O)N[C@@H](CCCN)C(=O)NC(C)(C)C(=O)N[C@H](C(=O)N[C@@H](CCCNC(=N)N)C(=O)N[C@@H](CCC(N)=O)C(=O)N[C@@H](CCCNC(=N)N)C(=O)N[C@@H](CC1CCCCC1)C(N)=O)[C@@H](C)O	10.17	8.92	22%
CC(=O)N[C@@H](CO)C(=O)N1CCC[C@@H]1C(=O)N[C@@H](CCCNC(=N)N)C(=O)N[C@@H](Cc1cnc[nH]1)C(=O)N[C@@H](CC1CCCCC1)C(=O)N[C@@H](CC1CCCCC1)C(=O)N[C@@H](CC(N)=O)C(=O)N[C@@H](CC(C)C)C(=O)NC(C)(C)C(=O)N[C@H](C(=O)N[C@@H](CCCNC(=N)N)C(=O)N[C@@H](CCC(N)=O)C(=O)N[C@@H](CCCNC(=N)N)C(=O)N[C@@H](CC1CCCCC1)C(N)=O)[C@@H](C)O (Ac-S[dP]RH[Cha][Cha]NL[Aib]TRQR[Cha]-NH2)	9.21	8.82	33%
CC(=O)N[C@@H](CO)C(=O)N1CCC[C@@H]1C(=O)N[C@@H](CCCNC(=N)N)C(=O)N[C@@H](Cc1cnc[nH]1)C(=O)N[C@@H](CCC(N)=O)C(=O)N[C@@H](CC1CCCCC1)C(=O)N[C@@H](CC(N)=O)C(=O)N[C@@H](CC(C)C)C(=O)NC(C)(C)C(=O)N[C@H](C(=O)N[C@@H](CCCNC(=N)N)C(=O)N[C@@H](CCC(N)=O)C(=O)N[C@@H](CCCNC(=N)N)C(=O)N[C@@H](CC1CCCCC1)C(N)=O)[C@@H](C)O	8.36	8.06	
CC(=O)N[C@@H](CO)C(=O)N1CCC[C@@H]1C(=O)N[C@@H](CCCNC(=N)N)C(=O)N[C@@H](Cc1cnc[nH]1)C(=O)N[C@@H](CC1CCCCC1)C(=O)N[C@@H](Cc1cnc[nH]1)C(=O)N[C@@H](CC(N)=O)C(=O)N[C@@H](CC(C)C)C(=O)NC(C)(C)C(=O)N[C@H](C(=O)N[C@@H](CCCNC(=N)N)C(=O)N[C@@H](CCC(N)=O)C(=O)N[C@@H](CCCNC(=N)N)C(=O)N[C@@H](CC1CCCCC1)C(N)=O)[C@@H](C)O	9.00	8.55	
